Reference: ChEMBL document CHEMBL5113515, “The Discovery of GSK3640254, a Next-Generation Inhibitor of HIV-1 Maturation” (J Med Chem, 2022)

Assays:
[1] = tested on: Human immunodeficiency virus 1; test: Antiviral activity against HIV1 NL (4 to 3) harbouring V362I/deltaV370 mutant transfected in human HEK293T cells by dual-luciferase reporter assay; assay type: functional, organism-based; details: Human immunodeficiency virus 1, HEK-293T
Cytochrome P450 3A4 = Cytochrome P450 3A4 (Homo sapiens, UniProt P08684); test: Inhibition of CYP3A4 (unknown origin); assay type: ADME
[2] = Oral bioavailability in overnight fasted mouse using spray-dried dispersion at 5 mg/kg; assay type: ADME, organism-based; details: in vivo
[3] = Volume of distribution at steady state in overnight fasted mouse at 5 mg/kg, po or 1 mg/kg, iv; assay type: ADME, organism-based; details: in vivo
[4] = AUC(0 to t) in overnight fasted Sprague-Dawley rat at 5 mg/kg, po or 1 mg/kg, iv; assay type: ADME, organism-based; parameters: dose 5 mg/kg, route po; details: in vivo
[5] = Half life in overnight fasted Beagle dog at 1 mg/kg, iv; assay type: ADME, organism-based, Canis lupus familiaris; details: in vivo
[6] = tested on: Human immunodeficiency virus 1; test: Antiviral activity against HIV1 wild type subtype B NL (4 to 3) transfected in human HEK293T cells by dual-luciferase reporter assay; assay type: functional, organism-based; details: Human immunodeficiency virus 1, HEK-293T
Cytochrome P450 2C9 = Cytochrome P450 2C9 (Homo sapiens, UniProt P11712); test: Inhibition of CYP2C9 (unknown origin); assay type: ADME
[7] = Half life in overnight fasted mouse at 1 mg/kg, iv; assay type: ADME, organism-based; details: in vivo
[8] = Volume of distribution at steady state in overnight fasted cynomolgus monkey at 2 mg/kg, po or 1 mg/kg, iv; assay type: ADME, organism-based, Macaca fascicularis; details: in vivo
[9] = AUC in rat at 5 mg/kg, po; assay type: ADME, organism-based; parameters: dose 5 mg/kg, route po; details: in vivo
[10] = tested on: Human immunodeficiency virus 1; test: Antiviral activity against HIV1 harbouring V362I/V370A mutant infected in human MT2 cells measured after 4 to 5 days by dual-luciferase reporter assay; assay type: functional, organism-based; details: Human immunodeficiency virus 1, MT2
[11] = AUC(0 to t) in overnight fasted mouse at 5 mg/kg, po or 1 mg/kg, iv; assay type: ADME, organism-based; parameters: dose 5 mg/kg, route po; details: in vivo
[12] = Volume of distribution at steady state in overnight fasted Beagle dog at 2 mg/kg, po or 1 mg/kg, iv; assay type: ADME, organism-based, Canis lupus familiaris; details: in vivo
[13] = AUC(0 to t) in overnight fasted cynomolgus monkey at 2 mg/kg, po or 1 mg/kg, iv; assay type: ADME, organism-based, Macaca fascicularis; parameters: dose 2 mg/kg, route po; details: in vivo
[14] = tested on: Human immunodeficiency virus 1; test: Antiviral activity against HIV1 NL (4 to 3) harbouring V362I mutant transfected in human HEK293T cells by dual-luciferase reporter assay; assay type: functional, organism-based; details: Human immunodeficiency virus 1, HEK-293T
[15] = Cmax in overnight fasted mouse at 5 mg/kg, po or 1 mg/kg, iv; assay type: ADME, organism-based; parameters: dose 5 mg/kg, route po; details: in vivo
[16] = Metabolic stability in rat liver microsomes assessed as half life in presence of NADPH at 0.5 uM by LC-MS/MS analysis; assay type: ADME, Microsome
[17] = Cmax in overnight fasted cynomolgus monkey at 2 mg/kg, po or 1 mg/kg, iv; assay type: ADME, organism-based, Macaca fascicularis; parameters: dose 2 mg/kg, route po; details: in vivo
Cytochrome P450 2B6 = biological target: T1, Cytochrome P450 2B6 (Homo sapiens, UniProt P20813); test: Inhibition of CYP2B6 (unknown origin); assay type: ADME
T1 sequence (P20813 whole entry): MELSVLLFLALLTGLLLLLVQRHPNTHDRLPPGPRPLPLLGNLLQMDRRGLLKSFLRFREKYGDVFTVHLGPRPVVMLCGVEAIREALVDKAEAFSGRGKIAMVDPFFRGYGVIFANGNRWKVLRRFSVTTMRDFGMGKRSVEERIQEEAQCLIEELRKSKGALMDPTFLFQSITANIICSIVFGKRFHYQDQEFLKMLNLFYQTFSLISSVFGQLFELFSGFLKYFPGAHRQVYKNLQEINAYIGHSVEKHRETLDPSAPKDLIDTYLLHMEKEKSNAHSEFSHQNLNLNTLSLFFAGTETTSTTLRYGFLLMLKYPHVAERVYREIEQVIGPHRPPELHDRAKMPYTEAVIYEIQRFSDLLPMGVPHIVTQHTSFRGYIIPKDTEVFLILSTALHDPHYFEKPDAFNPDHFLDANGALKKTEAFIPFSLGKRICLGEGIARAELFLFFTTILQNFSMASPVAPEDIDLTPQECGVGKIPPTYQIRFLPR

[18] = Cmax in overnight fasted Beagle dog at 2 mg/kg, po or 1 mg/kg, iv; assay type: ADME, organism-based, Canis lupus familiaris; parameters: dose 2 mg/kg, route po; details: in vivo
[19] = Drug concentration in overnight fasted mouse plasma at 5 mg/kg, po or 1 mg/kg, iv measured after 24 hrs; assay type: ADME, organism-based
[20] = tested on: Human immunodeficiency virus 1; test: Antiviral activity against HIV1 wild type NL (4 to 3) infected in human MT2 cells measured after 4 to 5 days in presence of human serum by dual-luciferase reporter assay; assay type: functional, organism-based; details: mt2
Cytochrome P450 2D6 = Cytochrome P450 2D6 (Homo sapiens, UniProt P10635); test: Inhibition of CYP2D6 (unknown origin); assay type: ADME
[21] = Drug concentration in overnight fasted Beagle dog plasma at 2 mg/kg, po or 1 mg/kg, iv measured after 24 hrs; assay type: ADME, organism-based, Canis lupus familiaris
[22] = Volume of distribution at steady state in overnight fasted Sprague-Dawley rat at 5 mg/kg, po or 1 mg/kg, iv; assay type: ADME, organism-based; details: in vivo
[23] = Binding affinity to HIV1 wild type Gag assessed as dissociation constant; parameters: species or system Human immunodeficiency virus 1
CYP3A4 = CYP3A4 (Homo sapiens, UniProt P08684); test: Induction of CYP3A4 in human hepatocyte; assay type: ADME, cell-based; details: hepatocytes
[24] = tested on: Human immunodeficiency virus 1; test: Antiviral activity against HIV1 harbouring deltaV370/T371A mutant infected in human MT2 cells measured after 4 to 5 days by dual-luciferase reporter assay; assay type: functional, organism-based; details: mt2
Cytochrome P450 2C19 = Cytochrome P450 2C19 (Homo sapiens, UniProt P33261); test: Inhibition of CYP2C19 (unknown origin); assay type: ADME
[25] = Metabolic stability in human liver microsomes assessed as half life in presence of NADPH at 0.5 uM by LC-MS/MS analysis; assay type: ADME, Microsome
[26] = Metabolic stability in mouse liver microsomes assessed as half life in presence of NADPH at 0.5 uM by LC-MS/MS analysis; assay type: ADME, Microsome
[27] = Oral bioavailability in overnight fasted Beagle dog using spray-dried dispersion at 2 mg/kg; assay type: ADME, organism-based, Canis lupus familiaris; details: in vivo
[28] = Metabolic stability in dog liver microsomes assessed as half life in presence of NADPH at 0.5 uM by LC-MS/MS analysis; assay type: ADME, Canis lupus familiaris, Microsome

Cytochrome P450 2C9, sequence (P11712 whole entry): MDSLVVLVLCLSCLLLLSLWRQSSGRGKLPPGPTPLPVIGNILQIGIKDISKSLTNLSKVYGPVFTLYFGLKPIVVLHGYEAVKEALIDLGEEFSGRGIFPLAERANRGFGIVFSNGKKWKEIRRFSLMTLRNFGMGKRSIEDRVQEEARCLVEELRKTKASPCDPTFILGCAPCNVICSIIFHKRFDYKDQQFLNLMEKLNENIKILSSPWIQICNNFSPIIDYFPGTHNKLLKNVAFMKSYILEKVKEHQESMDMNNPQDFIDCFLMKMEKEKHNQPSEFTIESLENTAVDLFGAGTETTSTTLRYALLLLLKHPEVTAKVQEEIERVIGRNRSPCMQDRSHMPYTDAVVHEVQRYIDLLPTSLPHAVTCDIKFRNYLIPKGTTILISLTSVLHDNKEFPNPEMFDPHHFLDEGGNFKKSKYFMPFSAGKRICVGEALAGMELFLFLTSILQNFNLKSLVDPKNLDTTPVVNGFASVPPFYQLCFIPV
Cytochrome P450 2D6, sequence (P10635 whole entry): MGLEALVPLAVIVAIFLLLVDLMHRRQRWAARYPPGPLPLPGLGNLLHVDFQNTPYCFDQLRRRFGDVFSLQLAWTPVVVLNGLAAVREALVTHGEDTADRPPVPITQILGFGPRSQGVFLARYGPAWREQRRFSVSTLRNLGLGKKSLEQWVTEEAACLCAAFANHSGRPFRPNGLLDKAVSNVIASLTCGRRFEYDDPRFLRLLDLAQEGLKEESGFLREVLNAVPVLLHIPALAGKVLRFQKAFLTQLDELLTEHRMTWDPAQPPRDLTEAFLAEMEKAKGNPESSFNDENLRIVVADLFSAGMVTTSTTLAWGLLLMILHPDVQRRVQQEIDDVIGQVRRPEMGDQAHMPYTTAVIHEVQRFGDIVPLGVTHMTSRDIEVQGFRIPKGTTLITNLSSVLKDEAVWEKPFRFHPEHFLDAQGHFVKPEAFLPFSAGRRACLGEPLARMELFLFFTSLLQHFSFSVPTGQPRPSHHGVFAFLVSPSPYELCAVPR
Cytochrome P450 2C19, sequence (P33261 whole entry): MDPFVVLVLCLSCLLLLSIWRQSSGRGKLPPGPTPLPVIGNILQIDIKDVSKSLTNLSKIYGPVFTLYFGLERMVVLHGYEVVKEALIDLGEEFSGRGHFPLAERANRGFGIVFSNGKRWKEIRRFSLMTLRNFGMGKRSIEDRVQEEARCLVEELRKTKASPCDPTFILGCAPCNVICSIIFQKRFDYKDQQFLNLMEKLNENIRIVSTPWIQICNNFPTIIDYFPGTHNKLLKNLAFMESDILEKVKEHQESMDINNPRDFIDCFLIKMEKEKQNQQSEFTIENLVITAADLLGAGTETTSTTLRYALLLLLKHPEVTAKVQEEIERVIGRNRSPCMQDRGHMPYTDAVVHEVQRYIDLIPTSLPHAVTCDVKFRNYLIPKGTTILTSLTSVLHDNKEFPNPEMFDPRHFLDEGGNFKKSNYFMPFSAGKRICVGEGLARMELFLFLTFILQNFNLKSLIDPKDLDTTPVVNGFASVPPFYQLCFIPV
CYP3A4, sequence (P08684 whole entry): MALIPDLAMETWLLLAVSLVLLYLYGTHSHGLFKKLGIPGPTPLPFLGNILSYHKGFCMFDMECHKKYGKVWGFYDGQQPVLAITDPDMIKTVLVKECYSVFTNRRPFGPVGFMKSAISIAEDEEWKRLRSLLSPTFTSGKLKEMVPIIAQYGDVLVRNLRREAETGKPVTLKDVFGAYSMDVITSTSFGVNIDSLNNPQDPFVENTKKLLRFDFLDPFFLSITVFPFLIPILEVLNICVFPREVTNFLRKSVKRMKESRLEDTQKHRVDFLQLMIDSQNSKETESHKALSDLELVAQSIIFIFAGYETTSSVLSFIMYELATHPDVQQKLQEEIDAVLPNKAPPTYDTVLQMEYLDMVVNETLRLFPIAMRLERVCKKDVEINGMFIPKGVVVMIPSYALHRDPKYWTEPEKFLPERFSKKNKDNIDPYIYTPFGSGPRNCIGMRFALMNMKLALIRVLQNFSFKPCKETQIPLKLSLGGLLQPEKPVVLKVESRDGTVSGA
Cytochrome P450 3A4, sequence (P08684 whole entry): as above

Structure (SMILES): C=C(C)[C@@H]1CC[C@]2(NCCN3CCS(=O)(=O)CC3)CC[C@]3(C)[C@H](CC[C@@H]4[C@@]5(C)CC=C(C6=CC[C@@](CF)(C(=O)O)CC6)C(C)(C)[C@@H]5CC[C@]43C)[C@@H]12 [FIPRAVIRIMAT]
- EC50 [1]: 3 nM
- IC50 (Cytochrome P450 3A4): > 13300 nM
- bioavailability [2]: 91%
- Vdss [3]: 1 L/kg
- AUC(0-t) [4]: 7.4 µM·h
- half-life [5]: 18.7 h
- EC50 [6]: 1.9 nM
- IC50 (Cytochrome P450 2C9): > 13300 nM
- half-life [7]: 4.6 h
- Vdss [8]: 0.43 L/kg
- AUC [9]: 7.368 µM·h
- EC50 [10]: 3 nM
- AUC(0-t) [11]: 29.9 µM·h
- Vdss [12]: 0.49 L/kg
- AUC(0-t) [13]: 7.6 µM·h
- EC50 [14]: 2.7 nM
- Cmax [15]: 2700 nM
- half-life at 0.5 µM [16]: 1.5 h
- Cmax [17]: 800 nM
- IC50 (Cytochrome P450 2B6): > 13300 nM
- Cmax [18]: 4300 nM
- concentration at 24 h [19]: 179 nM
- EC50 [20]: 13.9 nM
- IC50 (Cytochrome P450 2D6): > 13300 nM
- concentration at 24 h [21]: 1640 nM
- Vdss [22]: 1.8 L/kg
- Kd [23]: 1.4 nM
- EC50 (CYP3A4): > 5000 nM
- EC50 [24]: 3.6 nM
- IC50 (Cytochrome P450 2C19): > 13300 nM
- half-life at 0.5 µM [25]: > 2 h
- half-life at 0.5 µM [26]: > 2 h
- F [27]: 117%
- half-life at 0.5 µM [28]: > 2 h
